Data on 14 compounds can be found in patent US20230084144A1, “THERAPEUTIC COMBINATIONS OF DRUGS AND METHODS OF USING THEM” (ConSynance Therapeutics, Inc., priority 2020, published 2023).

For series [1], the target named is T1, Transporter, Dopamine (DAT) (Homo sapiens, UniProt Q01959).
T1 construct: host or cells: CHO-S cells
The experiment in a line: Radioligand binding, Transporter, Dopamine (DAT) (Eurofin Discovery 220320). As to conditions: for DAT, %inhibition 10 nM: 10 nM compound; for DAT, %inhibition 100 nM / inhibition at 0.1 µM: 100 nM compound.

For series [2], the target named is T2, Transporter, Norepinephrine (NET) (Homo sapiens, UniProt P23975).
T2 construct: host or cells: MDCK cells
The experiment in a line: Radioligand binding, Transporter, Norepinephrine (NET) (Eurofin Discovery 204410).

Series [3] deals with T3, MCHR1 (Homo sapiens, UniProt Q99705). The experiment in a line: MCHR1 pharmacology of the N-acetyl metabolite. The text has this: By substituting the hydrogens with deuterium on the carbon(s) adjacent to the nitrogen which is acetylated (see for example, Examples 5 to 7), acetylation process can be slowed down to reduce the formation of this metabolite.
Target sequence in this assay (Q99705 whole entry, species assumed): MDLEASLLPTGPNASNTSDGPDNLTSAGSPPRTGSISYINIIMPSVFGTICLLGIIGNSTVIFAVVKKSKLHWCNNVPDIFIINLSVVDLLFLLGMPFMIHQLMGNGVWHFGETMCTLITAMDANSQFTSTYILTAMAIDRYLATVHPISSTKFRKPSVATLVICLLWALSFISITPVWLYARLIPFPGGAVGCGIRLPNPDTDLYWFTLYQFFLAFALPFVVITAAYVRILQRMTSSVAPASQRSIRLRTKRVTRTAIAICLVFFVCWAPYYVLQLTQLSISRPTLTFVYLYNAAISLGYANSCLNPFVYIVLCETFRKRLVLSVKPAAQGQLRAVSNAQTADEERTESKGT
The target of the next series is T4, DAT (Homo sapiens, UniProt Q01959).
T4 construct: from tissue; host or cells: striatum of healthy male volunteers, in vivo PET
The settings on record: cited from earlier work.

The next series addresses NET (Homo sapiens, UniProt P23975). The settings on record: at efficacious doses; cited from earlier work.
The target of series [4] is T2, Transporter, Norepinephrine (NET). The settings on record: radioligand, Historical Values; cited from earlier work.
Series [5] concerns the target T1, Transporter, Dopamine (DAT). As to conditions: radioligand, Historical Values; cited from earlier work.
Another series relates to PWS patients. The settings on record: standard mg/day dosing, cited from earlier work.
The target in series [6] is T3, MCHR1. On the set-up: host or cells: CHO-K1 cells. The settings on record: radioligand, Historical Values; cited from earlier work.
Target sequence in this assay (Q99705 whole entry): as the sequence (Q99705 whole entry, species assumed) above

Read-outs that look alike come from different tables or passages of the source.

T2 sequence (P23975 whole entry): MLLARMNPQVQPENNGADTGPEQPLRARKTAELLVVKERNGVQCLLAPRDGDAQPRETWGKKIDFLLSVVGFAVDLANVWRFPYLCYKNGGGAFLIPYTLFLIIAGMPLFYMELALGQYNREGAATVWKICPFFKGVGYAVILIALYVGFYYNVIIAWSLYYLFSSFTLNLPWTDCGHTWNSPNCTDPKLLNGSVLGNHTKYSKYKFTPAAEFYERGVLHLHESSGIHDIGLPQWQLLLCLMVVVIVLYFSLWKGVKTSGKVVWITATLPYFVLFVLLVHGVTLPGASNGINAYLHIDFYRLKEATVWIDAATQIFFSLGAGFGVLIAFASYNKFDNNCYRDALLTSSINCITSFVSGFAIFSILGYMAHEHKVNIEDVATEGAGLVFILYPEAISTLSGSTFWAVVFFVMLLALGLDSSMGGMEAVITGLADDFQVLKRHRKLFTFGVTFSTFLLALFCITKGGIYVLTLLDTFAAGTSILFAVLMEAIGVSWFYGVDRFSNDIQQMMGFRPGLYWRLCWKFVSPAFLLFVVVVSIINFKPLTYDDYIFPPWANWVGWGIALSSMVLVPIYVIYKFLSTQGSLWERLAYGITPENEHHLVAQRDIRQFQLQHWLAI
NET, sequence (P23975 whole entry): as above
T4 sequence (Q01959 whole entry): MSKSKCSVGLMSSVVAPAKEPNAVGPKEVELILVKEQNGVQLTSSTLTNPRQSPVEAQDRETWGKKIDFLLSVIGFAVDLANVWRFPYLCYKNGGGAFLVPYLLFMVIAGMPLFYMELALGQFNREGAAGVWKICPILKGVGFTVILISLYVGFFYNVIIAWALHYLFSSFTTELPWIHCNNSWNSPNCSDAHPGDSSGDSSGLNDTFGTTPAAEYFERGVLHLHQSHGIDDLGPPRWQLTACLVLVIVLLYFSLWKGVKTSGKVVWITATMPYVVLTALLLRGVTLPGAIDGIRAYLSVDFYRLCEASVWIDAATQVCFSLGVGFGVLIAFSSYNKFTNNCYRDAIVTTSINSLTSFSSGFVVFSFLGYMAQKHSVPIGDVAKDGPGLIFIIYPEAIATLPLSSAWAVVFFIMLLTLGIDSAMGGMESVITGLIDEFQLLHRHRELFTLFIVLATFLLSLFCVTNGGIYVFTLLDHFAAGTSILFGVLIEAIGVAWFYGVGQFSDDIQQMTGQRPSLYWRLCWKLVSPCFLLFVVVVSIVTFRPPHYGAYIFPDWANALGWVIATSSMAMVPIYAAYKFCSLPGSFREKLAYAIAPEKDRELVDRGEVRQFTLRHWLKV
T1 sequence (Q01959 whole entry): as above

As to `[2H]C1([2H])NC([2H])([2H])C([2H])(c2ccc(Cl)c(Cl)c2)c2ccc(-c3ccc4ncnn4c3)cc21` (single isomer, unassigned) [Compound 8A, 7-([1,2,4]triazolo[1,5-a]pyridin-6-yl)-4-(3,4-dichlorophenyl)-1,2,3,4-tetrahydroisoquinoline-1,1,3,3,4-d5], the “DAT, %inhibition 10 nM” value in [1] is reported as 44%.

Consider `[2H]C1([2H])NC([2H])([2H])C([2H])(c2ccc(Cl)c(Cl)c2)c2ccc(-c3ccc4ncnn4c3)cc21` (single isomer, unassigned) [Compound 8B, 7-([1,2,4]triazolo[1,5-a]pyridin-6-yl)-4-(3,4-dichlorophenyl)-1,2,3,4-tetrahydroisoquinoline-1,1,3,3,4-d5], for which, in series [1], the “DAT, %inhibition 10 nM” value is 4% and the “DAT, %inhibition 100 nM” value stood at 75%. Moreover, the “NET, %inhibition 10 nM” value in series [2] (10 nM compound) is 37%. The “NET, %inhibition 100 nM” value in series [2] (100 nM compound) came out at 71%.

For `[2H]C1([2H])NCC(c2ccc(Cl)c(Cl)c2)c2ccc(-c3ccc4ncnn4c3)cc21` (single isomer, unassigned) [Compound 12A, 7-([1,2,4]triazolo[1,5-a]pyridin-6-yl)-4-(3,4-dichlorophenyl)-1,2,3,4-tetrahydroisoquinoline-1,1-d2], in series [1], the “DAT, %inhibition 10 nM” value is 53% and the inhibition at 0.1 µM is 92%.

Turning to `[2H]C1([2H])NCC(c2ccc(Cl)c(Cl)c2)c2ccc(-c3ccc4ncnn4c3)cc21` (single isomer, unassigned) [Compound 12B, 7-([1,2,4]triazolo[1,5-a]pyridin-6-yl)-4-(3,4-dichlorophenyl)-1,2,3,4-tetrahydroisoquinoline-1,1-d2], in series [1], the “DAT, %inhibition 10 nM” value was 0% and the “DAT, %inhibition 100 nM” value was determined as 74%. Moreover, the “NET, %inhibition 10 nM” value in series [2] (10 nM compound) amounted to 44%. Moreover, the “NET, %inhibition 100 nM” value in series [2] (100 nM compound) was 74%.

`[2H]C1([2H])NCc2cc(-c3ccc4ncnn4c3)ccc2C1([2H])c1ccc(Cl)c(Cl)c1` (single isomer, unassigned) [Compound 16A, 7-([1,2,4]triazolo[1,5-a]pyridin-6-yl)-4-(3,4-dichlorophenyl)-1,2,3,4-tetrahydroisoquinoline-3,3,4-d3]: in [1], the “DAT, %inhibition 10 nM” value is reported as 47% and 0.1 µM produced 91% inhibition. Testing at 0.01 µM in series [2] (10 nM compound) gave an inhibition of 38%. Moreover, the inhibition at 0.1 µM in series [2] (100 nM compound) was determined as 83%.

For `[2H]C1([2H])NCc2cc(-c3ccc4ncnn4c3)ccc2C1([2H])c1ccc(Cl)c(Cl)c1` (single isomer, unassigned) [Compound 16B, 7-([1,2,4]triazolo[1,5-a]pyridin-6-yl)-4-(3,4-dichlorophenyl)-1,2,3,4-tetrahydroisoquinoline-3,3,4-d3], the “DAT, %inhibition 10 nM” value in series [1] is on record as -2%.

`CC(=O)N1CCc2c(c3ccc(-n4ccc(OCc5ccc(F)cn5)cc4=O)cc3n2C)C1` [1-(2-acetyl-5-methyl-2,3,4,5-tetrahydro-1H-pyrido[4,3-b]indol-7-yl)-4-((5-fluoropyridin-2-yl)methoxy)pyridin-2(1H)-one]: on MCHR1 [3], the “contribution to MCHR1 antagonism” value is reported as “does not contribute to the pharmacology of MCHR1 antagonism”.

As to `CC(NC(C)(C)C)C(=O)c1cccc(Cl)c1` (centres unmarked) [Bupropion], on DAT (at efficacious doses), the “Lowest Occupancy DAT” value was 14% (Bupropion). Also, the DAT occupancy at DAT (at various approved doses) was 14-26%.

Regarding `COC(=O)C(c1ccccc1)C1CCCCN1` (centres unmarked) [Methylphenidate], at DAT (at efficacious doses), the “Highest Occupancy DAT” value is recorded as 74% (Methylphenidate). For the same compound, at DAT (at various approved doses), the DAT occupancy is 40-74%.

As to `COc1ccc(C(CN(C)C)C2(O)CCCCC2)cc1` (centres unmarked) [Venlafaxine], at NET, the “Highest Occupancy NET” value is 61% (Venlafaxine), the “Lowest Occupancy NET” value is on record as 8% (Venlafaxine) and the NET occupancies is recorded as 8-61%.

With `COC(=O)[C@H]1[C@@H](c2ccc(I)cc2)C[C@@H]2CC[C@H]1N2C` [[^125I] RTI-55], the figures for the Kd in series [4] and in series [5] were 24 nM and 0.58 nM, respectively.

As to `NC(=O)C[S+]([O-])C(c1ccccc1)c1ccccc1` (centres unmarked) [modafinil], the DAT occupancy at DAT (at various approved doses) is given as 51-57%.

`CCOC[C@@H]1[C@@H](c2ccc(Cl)c(Cl)c2)C[C@@H]2CC[C@H]1N2C` [tesofensine]: the DAT occupancy on DAT (suggested as the optimal weight loss doses) is recorded as 50%-70%. For the same compound, the hyperphagia entry in the series on PWS patients (PWS patients with the appropriate plasma drug level) was “controlled completely”. Moreover, the “patients with plasma drug levels exceeding the safety levels who discontinued due to adverse events” value with PWS patients (PWS patients) is recorded as “⅔”. Besides, the efficacy result with PWS patients (lowering the dosing for all patients) is “no efficacy”.

Regarding [^125I] Tyr-S36057, the Kd at MCHR1 [6] was 0.1 nM.

One may read the inhibition as the relative decrease from the control value, in per cent. Low readings indicate a response near the control, high ones a response far below the control. The Kd is a measure of binding affinity in units of concentration.
